This is an account of results in patent US6462040B1, “Cis-substituted aminocyclopropane derivative” (Daiicho Pharmaceutical Co., Ltd., priority 1996, dated 2002).

What is called MIC is the lowest concentration found to suppress growth. Higher therefore signals a need for much substance.

Assay in all cases: Antimicrobial activity, MIC (standard method of the Japan Chemotherapeutic Society)
Holding throughout (format): cell-based

In one assay the test system is Pr. mirabilis, IFO-3849. From the text:
(§1) The present invention will further be illustrated in greater detail by way of Examples and Reference Examples, but the present invention should not be construed as being limited thereto. The antimicrobial activity of the compounds prepared was examined in accordance with the standard method specified by the Japan Chemotherapeutic Society, and the results obtained were expressed in terms of minimum inhibitory concentration (MIC; μg/ml).

Assay [1] deals with Str. faecalis, ATCC-19433.
Text: as §1

The subject of a further assay is E. coli, NIHJ.
Text: as §1

Another assay deals with S. aureaus, 209P.
Text: as §1

The test system of the next assay is S. epidermidis, 56500.
Text: as §1

For a further assay, the system named is S. flexneli, 2A 5503.
Text: as §1

The next assay concerns Str. pyogenes, G-36.
Text: as §1

For assay [2], the system named is Ps. maltophilia, IID-1275.
Text: as §1

The subject of a further assay is Ps. aeruginosa, 32104.
Text: as §1

The subject of the next assay is Ps. aeruginosa, 32121.
Text: as §1

The test system of the next assay is Pr. vulgaris, 08601.
Text: as §1

A further assay deals with Ser. marcescens, 10100.
Text: as §1

In the next assay the test system is S. aureus, 870307.
Text: as §1

In brackets after ≈: the same amount, converted by molar mass.

For the compound `Cc1c(N2CCC([C@@H]3C[C@@H]3N)C2)c(F)c(N)c2c(=O)c(C(=O)O)cn([C@@H]3C[C@@H]3F)c12` (single isomer, unassigned; isomer b) [Example 3], the MIC is 0.05 µg/mL (≈ 0.119 µM) in the assay on Pr. mirabilis, IFO-3849; 0.025 µg/mL (≈ 0.0597 µM) in [1]; “≦0.003 μg/ml” in the assay with E. coli, NIHJ; “≦0.003 μg/ml” in the assay with S. aureaus, 209P; 0.006 µg/mL (≈ 0.0143 µM) with S. epidermidis, 56500; “≦0.003 μg/ml” in the assay with S. flexneli, 2A 5503. The MIC in the assay with Str. pyogenes, G-36 came to 0.006 µg/mL (≈ 0.0143 µM); in [2] it was 0.05 µg/mL (≈ 0.119 µM); against Ps. aeruginosa, 32104, 0.20 µg/mL (≈ 0.478 µM); against Ps. aeruginosa, 32121 it was 0.10 µg/mL (≈ 0.239 µM); in the assay with Pr. vulgaris, 08601 it was 0.05 µg/mL (≈ 0.119 µM); in the assay with Ser. marcescens, 10100, 0.10 µg/mL (≈ 0.239 µM). In the assay with S. aureus, 870307, this compound had a minimum inhibitory concentration (MIC) of 0.025 µg/mL (≈ 0.0597 µM).
